Values quoted from earlier work in patent US20170136076A1, “THERAPEUTIC COMPOSITIONS COMPRISING HERBAL EXTRACTS AND ESSENTIAL OILS FOR SMOKING AND VAPORIZATION” (NISARGA BIOTECH PRIVATE LIMITED, priority 2015, published 2017).

Tests used:
[1] = after 90 minutes; condenses on the surface of the vaporizer or the balloon
[2] = pure THC in the vaporizer

For `CCCCCc1cc(O)c2c(c1)OC(C)(C)[C@@H]1CCC(C)=C[C@@H]21` [THC, tetrahydrocannabinol], the “loss of THC from stored vapor” value [1] is listed as “exceed 50%” and the “degradation products (delta-8-THC, cannabinol, unknown compounds) detected by HPLC” value [2] is listed as “no degradation products”.
